In patent US11497212B2, “Substituted thiophenyl uracils, salts thereof and the use thereof as herbicidal agents” (Syngenta Crop Protection AG, priority 2017, dated 2022):

Key:
Type in all cases: in vivo
Viola tricolor [1] = assay: Herbicidal action pre-emergence (greenhouse pot trial); settings: application rate 320 g/ha, scored after about 3 weeks
Outline: (§1)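 Application rates of 320 g/ha or lower were used, with compounds delivered onto covering soil before weed emergence. After roughly three weeks in the greenhouse, damage was judged by eye as a percentage versus untreated plants.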

Stellaria media [2] = assay: as above; settings: application rate 320 g/ha, scored after about 3 weeks
Outline: as §1

Hordeum murinum [3] = assay: as above; settings: application rate 320 g/ha
Outline: as §1

Avena fatua [4] = assay: as above; settings: application rate 320 g/ha
Outline: as §1

Setaria viridis [5] = assay: as above; settings: application rate 320 g/ha, scored after about 3 weeks
Outline: as §1

Matricaria inodora [6] = assay: as above; settings: application rate 320 g/ha, scored after about 3 weeks
Outline: as §1

Abutilon theophrasti [7] = assay: as above; settings: application rate 320 g/ha, scored after about 3 weeks
Outline: as §1

Cyperus esculentus = assay: as above; settings: application rate 320 g/ha
Outline: as §1

Amaranthus retroflexus [8] = assay: as above; settings: application rate 320 g/ha, scored after about 3 weeks
Outline: as §1

Pharbitis purpurea [9] = assay: as above; settings: application rate 320 g/ha
Outline: as §1

Alopecurus myosuroides [10] = assay: as above; settings: application rate 320 g/ha, scored after about 3 weeks
Outline: as §1

Echinochloa crus-galli [11] = assay: as above; settings: application rate 320 g/ha, scored after about 3 weeks
Outline: as §1

Veronica persica [12] = assay: as above; settings: application rate 320 g/ha
Outline: as §1

Lolium rigidum [13] = assay: as above; settings: application rate 320 g/ha
Outline: as §1

Triticum aestivum = assay: Crop compatibility post-emergence (greenhouse pot trial)
Outline: (§2)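 Visual % rating about 3 weeks post-treatment against untreated plants (100% dead, 0% unaffected). Post-emergence spray of aqueous WP/EC preparations with 0.5% additive at 600 L/ha water, applied at one-leaf stage to greenhouse pot-grown crops in sandy loam.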

Glycine max [14] = assay: as above
Outline: as §2

Oryza sativa = assay: as above
Outline: as §2

Zea mays [15] = assay: as above
Outline: as §2

Glycine max [16] = assay: Crop compatibility pre-emergence (greenhouse pot trial); settings: application rate 80 g/ha, effect vs untreated controls
Outline: (§3)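 Visual percentage scoring against untreated controls, about 3 weeks after treatment, gave the crop injury values (100% = plants died, 0% = like controls). Compounds, as wettable powders or emulsion concentrates, were sprayed onto covering soil over sown seeds at 600 L/ha water with 0.5% additive.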

Zea mays [17] = assay: as above; settings: application rate 80 g/ha, effect vs untreated controls
Outline: as §3

Viola tricolor [18] = assay: Herbicidal action post-emergence (greenhouse pot trial)
Outline: (§4)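 Sowing in sandy loam, then 2–3 weeks of controlled greenhouse growth. Next, one-leaf-stage plants received a foliar spray of the WP- or EC-formulated compound with 0.5% additive (600 L/ha water, application rate of 80 g/ha or below). Finally, after about 3 weeks under optimal conditions, effect was judged by eye against controls.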

Matricaria inodora [19] = assay: as above; settings: scored visually after about 3 weeks vs untreated controls
Outline: as §4

Polygonum convolvulus = assay: as above; settings: scored visually after about 3 weeks vs untreated controls
Outline: as §4

Abutilon theophrasti [20] = assay: as above; settings: scored visually after about 3 weeks vs untreated controls
Outline: as §4

Amaranthus retroflexus [21] = assay: as above; settings: scored visually after about 3 weeks vs untreated controls
Outline: as §4

Pharbitis purpurea [22] = assay: as above
Outline: as §4

Veronica persica [23] = assay: as above
Outline: as §4

Stellaria media [24] = assay: as above; settings: scored visually after about 3 weeks vs untreated controls
Outline: as §4

Hordeum murinum [25] = assay: as above; settings: scored visually after about 3 weeks vs untreated controls
Outline: as §4

Setaria viridis [26] = assay: as above; settings: scored visually after about 3 weeks vs untreated controls
Outline: as §4

Echinochloa crus-galli [27] = assay: as above; settings: scored visually after about 3 weeks vs untreated controls
Outline: as §4

Avena fatua [28] = assay: as above; settings: scored visually after about 3 weeks vs untreated controls
Outline: as §4

Alopecurus myosuroides [29] = assay: as above; settings: scored visually after about 3 weeks vs untreated controls
Outline: as §4

Lolium rigidum [30] = assay: as above; settings: scored visually after about 3 weeks vs untreated controls
Outline: as §4

Digitaria sanguinalis = assay: as above; settings: application rate 20 g/ha
Outline: as §4

| Structure (SMILES) | Viola tricolor (Efficacy in %) (Viola tricolor [1]) | Stellaria media (Efficacy in %) (Stellaria media [2]) | Hordeum murinum (Efficacy in %) (Hordeum murinum [3]) | Avena fatua (Efficacy in %) (Avena fatua [4]) | Setaria viridis (Efficacy in %) (Setaria viridis [5]) | Matricaria inodora (Efficacy in %) (Matricaria inodora [6]) | Abutilon theophrasti (Efficacy in %) (Abutilon theophrasti [7]) | Amaranthus retroflexus (Efficacy in %) (Amaranthus retroflexus [8]) | Pharbitis purpurea (Efficacy in %) (Pharbitis purpurea [9]) | Echinochloa crus-galli (Efficacy in %) (Echinochloa crus-galli [11]) | Veronica persica (Efficacy in %) (Veronica persica [12]) | Lolium rigidum (Efficacy in %) (Lolium rigidum [13]) | Viola tricolor (Efficacy in %) (Viola tricolor [18]; application rate 80 g/ha) | Matricaria inodora (Efficacy in %) (Matricaria inodora [19]; application rate 80 g/ha) | Polygonum convolvulus (Efficacy in %) (Polygonum convolvulus; application rate 80 g/ha) | Abutilon theophrasti (Efficacy in %) (Abutilon theophrasti [20]; application rate 80 g/ha) | Amaranthus retroflexus (Efficacy in %) (Amaranthus retroflexus [21]; application rate 80 g/ha) | Pharbitis purpurea (Efficacy in %) (Pharbitis purpurea [22]; application rate 80 g/ha) | Veronica persica (Efficacy in %) (Veronica persica [23]; application rate 80 g/ha) | Oryza sativa (Efficacy in %) (Oryza sativa; application rate 5 g/ha) | also measured |
| --- | --- | --- | --- | --- | --- | --- | --- | --- | --- | --- | --- | --- | --- | --- | --- | --- | --- | --- | --- | --- | --- |
| CC(Sc1cc(-n2c(=O)cc(C(F)(F)F)n(C)c2=O)c(F)cc1Cl)C(=O)NCC1CS(=O)(=O)CCO1 (stereo not drawn) [I.1-333] | 100% | 100% | 100% | 100% | 90% | 100% | 100% | 100% | 100% | 100% | 100% | 100% | 100% | 100% | 100% | 100% | 100% | 80% | 80% | – | Cyperus esculentus (Efficacy in %) (Cyperus esculentus): 80%; Alopecurus myosuroides (Efficacy in %) (Alopecurus myosuroides [10]): 100%; Triticum aestivum (Efficacy in %) (Triticum aestivum; application rate 20 g/ha): 10%; Glycine max (Efficacy in %) (Glycine max [14]; application rate 20 g/ha): 20%; Oryza sativa (Efficacy in %) (Oryza sativa; application rate 80 g/ha): 0%; Zea mays (Efficacy in %) (Zea mays [15]; application rate 80 g/ha): 0%; Glycine max (Efficacy in %) (Glycine max [16]): 0%; Zea mays (Efficacy in %) (Zea mays [17]): 20% |
| CC(Sc1cc(-n2c(=O)cc(C(F)(F)F)n(C)c2=O)c(F)cc1Cl)C(=O)OCC1CCCO1 (stereo not drawn) [I.1-71] | 100% | 100% | 90% | 90% | 100% | 100% | 100% | 100% | 100% | 100% | 100% | 90% | 100% | 100% | 100% | 100% | 100% | 100% | 100% | 20% | Cyperus esculentus (Efficacy in %) (Cyperus esculentus): 80%; Alopecurus myosuroides (Efficacy in %) (Alopecurus myosuroides [10]): 100%; Triticum aestivum (Efficacy in %) (Triticum aestivum; application rate 80 g/ha): 20%; Glycine max (Efficacy in %) (Glycine max [14]; application rate 20 g/ha): 20%; Zea mays (Efficacy in %) (Zea mays [15]; application rate 80 g/ha): 20%; Glycine max (Efficacy in %) (Glycine max [16]): 0%; Zea mays (Efficacy in %) (Zea mays [17]): 0%; Stellaria media (Efficacy in %) (Stellaria media [24]; application rate 80 g/ha): 100%; Hordeum murinum (Efficacy in %) (Hordeum murinum [25]; application rate 80 g/ha): 80%; Setaria viridis (Efficacy in %) (Setaria viridis [26]; application rate 80 g/ha): 100%; Echinochloa crus-galli (Efficacy in %) (Echinochloa crus-galli [27]; application rate 80 g/ha): 100% |
| CON(C(=O)C(C)Sc1cc(-n2c(=O)cc(C(F)(F)F)n(C)c2=O)c(F)cc1Cl)C1CCOC1 (stereo not drawn) [I.1-341] | 100% | 100% | 80% | 90% | 100% | 100% | 100% | 100% | 100% | 100% | 100% | 100% | 100% | 100% | 100% | 100% | 100% | 100% | 100% | 10% | Alopecurus myosuroides (Efficacy in %) (Alopecurus myosuroides [10]): 90%; Triticum aestivum (Efficacy in %) (Triticum aestivum; application rate 20 g/ha): 10%; Glycine max (Efficacy in %) (Glycine max [14]; application rate 25 g/ha): 10%; Zea mays (Efficacy in %) (Zea mays [15]; application rate 20 g/ha): 10%; Zea mays (Efficacy in %) (Zea mays [17]): 0%; Stellaria media (Efficacy in %) (Stellaria media [24]; application rate 80 g/ha): 100%; Hordeum murinum (Efficacy in %) (Hordeum murinum [25]; application rate 80 g/ha): 90%; Avena fatua (Efficacy in %) (Avena fatua [28]; application rate 80 g/ha): 90%; Setaria viridis (Efficacy in %) (Setaria viridis [26]; application rate 80 g/ha): 100%; Alopecurus myosuroides (Efficacy in %) (Alopecurus myosuroides [29]; application rate 80 g/ha): 90%; Echinochloa crus-galli (Efficacy in %) (Echinochloa crus-galli [27]; application rate 80 g/ha): 100%; Lolium rigidum (Efficacy in %) (Lolium rigidum [30]; application rate 80 g/ha): 100% |
| CC(Sc1cc(-n2c(=O)cc(C(F)(F)F)n(C)c2=O)c(F)cc1Cl)C(=O)OC1COC1 (stereo not drawn) [I.1-115] | – | – | – | – | – | – | – | – | – | – | – | – | – | – | – | – | – | – | – | 0% | Zea mays (Efficacy in %) (Zea mays [15]; application rate 5 g/ha): 20%; Viola tricolor (Efficacy in %) (Viola tricolor [18]; application rate 20 g/ha): 100%; Stellaria media (Efficacy in %) (Stellaria media [24]; application rate 20 g/ha): 100%; Hordeum murinum (Efficacy in %) (Hordeum murinum [25]; application rate 20 g/ha): 100%; Avena fatua (Efficacy in %) (Avena fatua [28]; application rate 20 g/ha): 80%; Setaria viridis (Efficacy in %) (Setaria viridis [26]; application rate 20 g/ha): 100%; Matricaria inodora (Efficacy in %) (Matricaria inodora [19]; application rate 20 g/ha): 100%; Polygonum convolvulus (Efficacy in %) (Polygonum convolvulus; application rate 20 g/ha): 100%; Digitaria sanguinalis (Efficacy in %) (Digitaria sanguinalis): 100%; Abutilon theophrasti (Efficacy in %) (Abutilon theophrasti [20]; application rate 20 g/ha): 100%; Amaranthus retroflexus (Efficacy in %) (Amaranthus retroflexus [21]; application rate 20 g/ha): 100%; Pharbitis purpurea (Efficacy in %) (Pharbitis purpurea [22]; application rate 20 g/ha): 100%; Alopecurus myosuroides (Efficacy in %) (Alopecurus myosuroides [29]; application rate 20 g/ha): 80%; Veronica persica (Efficacy in %) (Veronica persica [23]; application rate 20 g/ha): 100% |
| COCCOC(=O)CSc1cc(-n2c(=O)cc(C(F)(F)F)n(C)c2=O)c(F)cc1Cl [I.8-1] | 100% | 100% | 90% | 80% | 100% | 100% | 100% | 100% | 100% | 100% | 100% | 90% | 100% | 100% | 100% | 100% | 100% | 100% | 100% | 10% | Cyperus esculentus (Efficacy in %) (Cyperus esculentus): 90%; Glycine max (Efficacy in %) (Glycine max [14]; application rate 5 g/ha): 20%; Zea mays (Efficacy in %) (Zea mays [15]; application rate 5 g/ha): 20%; Stellaria media (Efficacy in %) (Stellaria media [24]; application rate 80 g/ha): 100%; Setaria viridis (Efficacy in %) (Setaria viridis [26]; application rate 80 g/ha): 100%; Echinochloa crus-galli (Efficacy in %) (Echinochloa crus-galli [27]; application rate 80 g/ha): 100% |
| CC(Sc1cc(-n2c(=O)cc(C(F)(F)F)n(C)c2=O)c(F)cc1Cl)C(=O)OC1CCOC1 (stereo not drawn) [I.1-121] | – | – | – | – | – | – | – | – | – | – | – | – | – | – | – | – | – | – | – | – | Stellaria media (Efficacy in %) (Stellaria media [24]; application rate 20 g/ha): 100%; Hordeum murinum (Efficacy in %) (Hordeum murinum [25]; application rate 20 g/ha): 80%; Avena fatua (Efficacy in %) (Avena fatua [28]; application rate 20 g/ha): 80%; Setaria viridis (Efficacy in %) (Setaria viridis [26]; application rate 20 g/ha): 100%; Matricaria inodora (Efficacy in %) (Matricaria inodora [19]; application rate 20 g/ha): 100%; Polygonum convolvulus (Efficacy in %) (Polygonum convolvulus; application rate 20 g/ha): 100%; Digitaria sanguinalis (Efficacy in %) (Digitaria sanguinalis): 100%; Abutilon theophrasti (Efficacy in %) (Abutilon theophrasti [20]; application rate 20 g/ha): 100%; Amaranthus retroflexus (Efficacy in %) (Amaranthus retroflexus [21]; application rate 20 g/ha): 100%; Pharbitis purpurea (Efficacy in %) (Pharbitis purpurea [22]; application rate 20 g/ha): 100%; Echinochloa crus-galli (Efficacy in %) (Echinochloa crus-galli [27]; application rate 20 g/ha): 100%; Veronica persica (Efficacy in %) (Veronica persica [23]; application rate 20 g/ha): 100%; Lolium rigidum (Efficacy in %) (Lolium rigidum [30]; application rate 20 g/ha): 80% |
